Data reported in patent US20120009280A1, “METHOD OF REDUCING THE RATE OF DEGRADATION OF A BIOLOGICAL MATERIAL” (Bio-Energy Ingredients Limited, priority 2009, published 2012).

Assays:
Type in all cases: cell-based
mould = test: Mould count of spent brewer's / wet distiller's grains stored at ambient temperature
Protocol: (§1) Samples of Portion 1 (“AR”), Portion 3 (“SO”) and Portion 5 (“SH”) were then delivered to a microbiological testing facility about 15 kilometres from the treatment laboratory. Each was tested for initial total microbial, yeast and mould counts, respectively.
(§2) Separate untreated samples were similarly stored under insect-proof screens at ambient temperature for seven days (as shown in Tables 1 and 2). During the trial period the ambient temperature ranged from 11 to 33 degrees C.
(§3) The free moisture content on the initial spent brewer's grains was determined to be 78.1% m/m. After exposure to the environment for seven days, all of the samples were tested at a South African National Accreditation System (SANAS) approved microbiological testing facility. Each was tested for total micro-organism, yeast and mould counts to determine the affect of the various treatments. A similar procedure to that described in K. A. Rosentrater et al, Food Bioprocess Technol (2008) was used for the microbiological evaluation.
(§4) At the laboratory, the samples were thoroughly mixed and initially split into a first portion (Portion 1) and a second portion (Portion 2). Portion 1 was left untreated. A sample of Portion 1, was delivered immediately to a microbiological testing facility about 15 kilometres away from the treatment laboratory and was tested for initial total microbial, yeast and mould counts, respectively. No water removal prior to treatment was done in this experiment as was the case in Example 8 wherein a similar wet material was partially dewatered by pressing and the residue treated with 10% (w/w/) calcium oxide.
Samples from Portion 2 were subjected to treatment with varying amounts of a powdered, commercially-available calcium oxide containing approximately 94% calcium oxide (CaO) as shown in Table 32. […] The samples were stored in batches (according to the calcium oxide treatment) under insect-proof screens at ambient temperature for fifty six days. Separate untreated samples were similarly stored under insect-proof screens at ambient temperature for a total of 56 days. During the trial period the ambient temperature ranged from 10 to 30 degrees C. As this period was the southern hemisphere spring/early summer, the humidity as well as ambient temperatures varied widely.
as §3, with “79.4%” for “78.1%”
(§5) Samples from each treatment were drawn every seven days. No further calcium oxide treatment or agitation took place after the initial mix. In each case the entire sample was isolated and delivered to the microbiological testing facility.
(§6) The calcium oxide treatment trial described in Example 9 wherein wet distiller's grains were treated with 2.5%, 5% and 10.0% calcium oxide, respectively, versus untreated material was repeated using lower doses of calcium oxide. In this trial the same source of wet distiller's grains (again with now partial water removal prior to treatment) was treated. Also, the same protocol as described in Example 9 was applied, but at lower doses of calcium oxide i.e. 0.5%, 1.0%, 1.5%, 2.0% and 2.5%, respectively, versus untreated material.
(§7) In this trial the same source of wet distiller's grains (again with now partial water removal prior to treatment) was treated. Also, the same protocol as described in Example 9 was applied.

yeast [1] = test: Yeast count of spent brewer's / wet distiller's grains stored at ambient temperature
yeast [2] = test: as above; remark: listed apart in the source
Protocol: as §1, §2, §3, §4
Samples from Portion 2 were subjected to treatment with varying amounts of a powdered, commercially-available calcium oxide containing approximately 94% calcium oxide (CaO) as shown in Table 32. The treatments varied from 2.5 to 10% (w/w) calcium oxide addition. The samples were stored in batches (according to the calcium oxide treatment) under insect-proof screens at ambient temperature for fifty six days. Separate untreated samples were similarly stored under insect-proof screens at ambient temperature for a total of 56 days. During the trial period the ambient temperature ranged from 10 to 30 degrees C. As this period was the southern hemisphere spring/early summer, the humidity as well as ambient temperatures varied widely.
as §3, with “79.4%” for “78.1%”
as §5, §6, §7

[3] = 10% Ca-DGO (w/w) granules, week 1
[4] = 10% Ca-DGO (w/w) granules, week 2
[5] = 10% Ca-DGO (w/w) granules, week 3
[6] = 10% Ca-DGO (w/w) granules, week 4
[7] = 10% Ca-DGO (w/w) granules, week 5
[8] = 10% Ca-DGO (w/w) powder, week 1
[9] = 10% Ca-DGO (w/w) powder, week 2
[10] = 10% Ca-DGO (w/w) powder, week 3
[11] = 10% Ca-DGO (w/w) powder, week 4
[12] = 10% Ca-DGO (w/w) powder, week 5
[13] = 20% Ca-DGO (w/w) powder, week 1
[14] = 20% Ca-DGO (w/w) powder, week 2
[15] = 20% Ca-DGO (w/w) powder, week 3
[16] = 20% Ca-DGO (w/w) powder, week 4
[17] = 20% Ca-DGO (w/w) powder, week 5
[18] = 40% Ca-DGO (w/w) powder, week 1
[19] = 40% Ca-DGO (w/w) powder, week 2
[20] = 40% Ca-DGO (w/w) powder, week 3
[21] = 40% Ca-DGO (w/w) powder, week 4
[22] = 40% Ca-DGO (w/w) powder, week 5

[Ca+2].[OH-].[OH-] [(CaOH)2 powder]
Mould Count (mould; dose 3.3% (w/w), week 0): <10 cfu/gram | Mould Count (mould; dose 3.3% (w/w), week 1): <10 cfu/gram | Mould Count (mould; dose 3.3% (w/w), week 2): <10 cfu/gram | Mould Count (mould; dose 3.3% (w/w), week 3): <10 cfu/gram | Mould Count (mould; dose 3.3% (w/w), week 4): <10 cfu/gram | Mould Count (mould; dose 3.3% (w/w), week 5): <10 cfu/gram | Mould Count (mould; dose 3.3% (w/w), week 6): <10 cfu/gram | Mould Count (mould; dose 3.3% (w/w), week 7): <10 cfu/gram | Mould Count (mould; dose 3.3% (w/w), week 8): <10 cfu/gram | Mould Count (mould; dose 6.6% (w/w), week 0): <10 cfu/gram | Mould Count (mould; dose 6.6% (w/w), week 1): <10 cfu/gram | Mould Count (mould; dose 6.6% (w/w), week 2): <10 cfu/gram | Mould Count (mould; dose 6.6% (w/w), week 3): <10 cfu/gram | Mould Count (mould; dose 6.6% (w/w), week 4): <10 cfu/gram | Mould Count (mould; dose 6.6% (w/w), week 5): <10 cfu/gram | Mould Count (mould; dose 6.6% (w/w), week 6): <10 cfu/gram | Mould Count (mould; dose 6.6% (w/w), week 7): <10 cfu/gram | Mould Count (mould; dose 6.6% (w/w), week 8): <10 cfu/gram | Mould Count (mould; dose 6.6% (w/w), week 9): 10 cfu/gram | Yeast Count (yeast [1]; dose 3.3% (w/w), week 0): <10 cfu/gram | Yeast Count (yeast [1]; dose 3.3% (w/w), week 1): <10 cfu/gram | Yeast Count (yeast [1]; dose 3.3% (w/w), week 2): <10 cfu/gram | Yeast Count (yeast [1]; dose 3.3% (w/w), week 3): <10 cfu/gram | Yeast Count (yeast [1]; dose 3.3% (w/w), week 4): <10 cfu/gram | Yeast Count (yeast [1]; dose 3.3% (w/w), week 5): <10 cfu/gram | Yeast Count (yeast [1]; dose 3.3% (w/w), week 6): <10 cfu/gram | Yeast Count (yeast [1]; dose 3.3% (w/w), week 7): <10 cfu/gram | Yeast Count (yeast [1]; dose 6.6% (w/w), week 0): <10 cfu/gram | Yeast Count (yeast [1]; dose 6.6% (w/w), week 1): <10 cfu/gram | Yeast Count (yeast [1]; dose 6.6% (w/w), week 3): <10 cfu/gram | Yeast Count (yeast [1]; dose 6.6% (w/w), week 4): <10 cfu/gram | Yeast Count (yeast [1]; dose 6.6% (w/w), week 5): <10 cfu/gram | Yeast Count (yeast [1]; dose 6.6% (w/w), week 6): <10 cfu/gram | Yeast Count (yeast [1]; dose 6.6% (w/w), week 7): <10 cfu/gram | Yeast Count (yeast [1]; dose 6.6% (w/w), week 8): <10 cfu/gram | Yeast Count (yeast [1]; dose 6.6% (w/w), week 9): <10 cfu/gram | Yeast Count (yeast [2]; dose 3.3% (w/w), week 8): <10 cfu/gram | Yeast Count (yeast [2]; dose 6.6% (w/w), week 2): <10 cfu/gram

[Ca+2].[O-]CC(O)CO.[O-]CC(O)CO [Ca-DGO granules]
Mould Count (mould; dose 10% (w/w), week 0): <10 cfu/gram | Mould Count (mould; dose 10% (w/w), week 1): <10 cfu/gram | Mould Count (mould; dose 10% (w/w), week 2): <10 cfu/gram | Mould Count (mould; dose 10% (w/w), week 3): <10 cfu/gram | Mould Count (mould; dose 10% (w/w), week 4): <10 cfu/gram | Mould Count (mould; dose 10% (w/w), week 5): <10 cfu/gram | Mould Count (mould; dose 10% (w/w), week 6): <10 cfu/gram | Mould Count (mould; dose 10% (w/w), week 7): 400 cfu/gram | Mould Count (mould; dose 10% (w/w), week 8): 250 cfu/gram | Mould Count (mould; dose 10% (w/w), week 9): <10 cfu/gram | Mould Count (mould; dose 15% (w/w), week 0): <10 cfu/gram | Mould Count (mould; dose 15% (w/w), week 1): <10 cfu/gram | Mould Count (mould; dose 15% (w/w), week 2): <10 cfu/gram | Mould Count (mould; dose 15% (w/w), week 3): <10 cfu/gram | Mould Count (mould; dose 15% (w/w), week 4): <10 cfu/gram | Mould Count (mould; dose 15% (w/w), week 5): <10 cfu/gram | Mould Count (mould; dose 15% (w/w), week 6): <10 cfu/gram | Mould Count (mould; dose 15% (w/w), week 7): <10 cfu/gram | Mould Count (mould; dose 15% (w/w), week 8): <10 cfu/gram | Mould Count (mould; dose 15% (w/w), week 9): <10 cfu/gram | Yeast Count (yeast [1]; dose 10% (w/w), week 0): <10 cfu/gram | Yeast Count (yeast [1]; dose 10% (w/w), week 1): <10 cfu/gram | Yeast Count (yeast [1]; dose 10% (w/w), week 2): <10 cfu/gram | Yeast Count (yeast [1]; dose 10% (w/w), week 7): <10 cfu/gram | Yeast Count (yeast [1]; dose 10% (w/w), week 8): <10 cfu/gram | Yeast Count (yeast [1]; dose 15% (w/w), week 0): <10 cfu/gram | Yeast Count (yeast [1]; dose 15% (w/w), week 1): <10 cfu/gram | Yeast Count (yeast [1]; dose 15% (w/w), week 2): <10 cfu/gram | Yeast Count (yeast [1]; dose 15% (w/w), week 3): <10 cfu/gram | Yeast Count (yeast [1]; dose 15% (w/w), week 4): <10 cfu/gram | Yeast Count (yeast [1]; dose 15% (w/w), week 5): 30 cfu/gram | Yeast Count (yeast [1]; dose 15% (w/w), week 6): <10 cfu/gram | Yeast Count (yeast [1]; dose 15% (w/w), week 7): <10 cfu/gram | Yeast Count (yeast [1]; dose 15% (w/w), week 8): <10 cfu/gram | Yeast Count (yeast [1]; dose 15% (w/w), week 9): <10 cfu/gram | Yeast Count (yeast [2]; dose 10% (w/w), week 3): <10 cfu/gram | Yeast Count (yeast [2]; dose 10% (w/w), week 4): <10 cfu/gram | Yeast Count (yeast [2]; dose 10% (w/w), week 5): 100 cfu/gram | Yeast Count (yeast [2]; dose 10% (w/w), week 6): <10 cfu/gram | Yeast Count (yeast [2]; dose 10% (w/w), week 9): <10 cfu/gram

[Ca+2].[O-]CC(O)CO.[O-]CC(O)CO [calcium diglyceroxide]
Mould Count (mould; [3]): 10 cfu/gram | Mould Count (mould; [4]): <10 cfu/gram | Mould Count (mould; [5]): <10 cfu/gram | Mould Count (mould; [6]): <10 cfu/gram | Mould Count (mould; [7]): <10 cfu/gram | Mould Count (mould; [8]): <10 cfu/gram | Mould Count (mould; [9]): <10 cfu/gram | Mould Count (mould; [10]): <10 cfu/gram | Mould Count (mould; [11]): 310 cfu/gram | Mould Count (mould; [12]): 1020 cfu/gram | Mould Count (mould; [13]): 10 cfu/gram | Mould Count (mould; [14]): 10 cfu/gram | Mould Count (mould; [15]): 10 cfu/gram | Mould Count (mould; [16]): 10 cfu/gram | Mould Count (mould; [17]): 10 cfu/gram | Mould Count (mould; [18]): 10 cfu/gram | Mould Count (mould; [19]): 10 cfu/gram | Mould Count (mould; [20]): 10 cfu/gram | Mould Count (mould; [21]): 10 cfu/gram | Mould Count (mould; [22]): 10 cfu/gram | Yeast Count (yeast [1]; [3]): 480 cfu/gram | Yeast Count (yeast [1]; [4]): <10 cfu/gram | Yeast Count (yeast [1]; [5]): <10 cfu/gram | Yeast Count (yeast [1]; [6]): <19 cfu/gram | Yeast Count (yeast [1]; [7]): <10 cfu/gram | Yeast Count (yeast [1]; [8]): <10 cfu/gram | Yeast Count (yeast [1]; [9]): <10 cfu/gram | Yeast Count (yeast [1]; [10]): <10 cfu/gram | Yeast Count (yeast [1]; [11]): <10 cfu/gram | Yeast Count (yeast [1]; [12]): <10 cfu/gram | Yeast Count (yeast [1]; [13]): 10 cfu/gram | Yeast Count (yeast [1]; [14]): 10 cfu/gram | Yeast Count (yeast [1]; [15]): 10 cfu/gram | Yeast Count (yeast [1]; [16]): 10 cfu/gram | Yeast Count (yeast [1]; [17]): 10 cfu/gram | Yeast Count (yeast [1]; [18]): 10 cfu/gram | Yeast Count (yeast [1]; [19]): 10 cfu/gram | Yeast Count (yeast [1]; [20]): 20 cfu/gram | Yeast Count (yeast [1]; [21]): 10 cfu/gram | Yeast Count (yeast [1]; [22]): 10 cfu/gram
